# Measurements published in ChEMBL document CHEMBL1150848, “Radiosumin B, an unusual dipeptide from the cyanobacterium Microcystis aeruginosa” (J Nat Prod, 2001).
# The source made the active and inactive calls. The calls are words filed in the database; no cut-off is given here.
# Assays:
# [1] = Inhibition of trypsin
# [2] = biological target: Plasminogen (Homo sapiens) (UniProt P00747); assay: Inhibition of plasmin
# Chain of Plasminogen (Homo sapiens) (P00747 97-580 limits assumed): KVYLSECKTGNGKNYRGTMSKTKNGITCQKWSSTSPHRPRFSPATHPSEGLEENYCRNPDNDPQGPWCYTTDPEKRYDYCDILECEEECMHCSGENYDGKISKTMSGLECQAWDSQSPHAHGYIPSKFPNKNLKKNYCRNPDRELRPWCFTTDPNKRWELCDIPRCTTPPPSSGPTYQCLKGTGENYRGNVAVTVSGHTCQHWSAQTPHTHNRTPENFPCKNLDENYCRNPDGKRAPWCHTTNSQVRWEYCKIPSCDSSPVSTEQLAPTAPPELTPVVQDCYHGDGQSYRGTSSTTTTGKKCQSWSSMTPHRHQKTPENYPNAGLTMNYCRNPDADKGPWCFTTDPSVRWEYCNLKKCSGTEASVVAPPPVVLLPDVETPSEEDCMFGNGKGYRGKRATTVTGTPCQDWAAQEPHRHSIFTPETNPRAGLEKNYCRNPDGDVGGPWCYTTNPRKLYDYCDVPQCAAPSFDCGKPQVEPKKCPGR
# Chain of Plasminogen (Homo sapiens) (P00747 581-810 limits assumed): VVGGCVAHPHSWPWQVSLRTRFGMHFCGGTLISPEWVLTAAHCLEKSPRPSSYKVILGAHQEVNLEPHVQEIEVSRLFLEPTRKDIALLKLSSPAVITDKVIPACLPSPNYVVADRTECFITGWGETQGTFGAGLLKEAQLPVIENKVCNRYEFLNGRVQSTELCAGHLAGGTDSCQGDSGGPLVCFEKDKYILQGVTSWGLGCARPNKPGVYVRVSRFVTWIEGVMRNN
compound,measurement,setting,value
CN[C@H]1C=C/C(=C/[C@H](NC(C)=O)C(=O)N[C@@H](/C=C2/C=C[C@H](NC(C)=O)CC2)C(=O)O)CC1,Activity,[1],Active
same,Activity,[2],Active
